Entries after “also recorded” stand apart in the source; their conditions may differ.
Columns and labels:
[1] = tested on: pulmonary arterial endothelial cells (PAECs); assay: Western blot of mitochondrial marker TOM20 as measure of mitophagy; type: cell-based, human; settings: for Tom20 levels (mitophagy): ECs / PAEC
Excerpt: (§1) Western blot. Cell lysates were resolved on a SDS PAGE pre-cast gel (Invitrogen) and resolved proteins were transferred on to a PVDF membrane for further detection of proteins using specific antibodies. Antibodies for SREBP1 were purchased from Santa Cruz Biotechnology (Cat #sc-365513) and Novus biological (Cat #NB100-2215). SCD antibody was purchased from Santa Cruz Biotechnology (Cat #sc-58420). Tom20 and LAMP1 antibodies were purchased from Cell Signaling (Cat #42406S and 15665S, respectively).
(§2) First, degradation of a mitochondrial marker (TOM20) was evaluated as a bio-chemical marker of mitophagy induction.

[2] = tested on: SREBP1; assay: Western blot of SREBP1, SCD and NCEH1 (SREBP1 activation); type: cell-based, human; settings: for SCD (SREBP1 target) levels / SREBP1 levels (non-cleaved; decrease indicates cleavage and activation): ECs / PAEC; for SCD (SREBP1 target) levels / SREBP1 levels (non-cleaved; decrease indicates cleavage and activation) / NCEH1 levels: western blot
Excerpt: as §1, with “respectively). […]” for “respectively).”

[3] = tested on: SREBP1; assay: Immunofluorescence of SREBP1 nuclear accumulation; type: cell-based, human; settings: ECs, IF
Excerpt: (§3) Immunofluorescence Microscopy. Cells were fixed with 4% Formaldehyde (Electron Microscopy Sciences, #C993M24) and permeabilized in the presence of 0.1% Triton X-100 (Sigma). Full-length SREBP1 was stained using mouse monoclonal antibody from Santa Cruz Biotechnology (Cat #sc-365513). Whereas nuclear SREBP1 was detected using antibody from Novus biological (Cat #NB100-2215). Mitophagy was confirmed by staining mitochondrial Tom20 and lysosomal marker LAMP1. Tom20 and LAMP1 antibodies were purchased from Cell Signaling (Cat #42406S and 15665S, respectively). Images were captured on an inverted fluorescent microscope (Leica).
NCEH1 knockdown experiments. NCEH1 was depleted using siRNA pool from Dharmacon or Lentiviral shRNA from Sigma. NCEH1 depletion was confirmed on a Western blot or by immunofluorescence assay.
Although pharmacological inhibition of NCEH1 promoted nuclear accumulation of SREBP1, genetic evidence further supports these observations. To this end, ECs were transfected with control or siNCEH1 siRNA and localization of SREBP1 or NCEH1 was captured on IF microscope.

[4] = tested on: PAEC / ECs; assay: Immunofluorescence microscopy of Tom20 and lysosomal marker LAMP1 (mitophagy); type: cell-based, human; settings: for mitophagy by immunofluorescence (Tom20/Lamp1): ECs
Excerpt: as §3, with “Mitophagy was confirmed by staining mitochondrial Tom20 and lysosomal marker LAMP1.” left out
as §2
Fixed cells were stained with Tom20 and Lamp1 and the fluorescence images were captured on a fluorescence microscope.

[5] = tested on: ECs; assay: Transmission electron microscopy for mitophagy; type: cell-based, human; settings: 10 uM propranolol, 10 uM R-propranolol or 0.1 uM JW480 for 12 hours
Protocol: Transmission Electron Microscopy. […] Thin sections from these fixed cell blocks were visualized on Tecnai Spirit (ThermoFisher) TEM Microscope. Images captured were analyzed.
TEM evidence. […] ECs exposed to these drugs were fixed and the images were captured on a TEM.

[6] = target: T1, NCEH1-phosphatidylserine interactions (Homo sapiens, UniProt Q6PIU2); assay: Dot blot membrane strip assay of NCEH1 binding to phosphatidylserine; settings: purified NCEH1 protein on lipid membrane strip, in vitro
T1 sequence (Q6PIU2 1-408): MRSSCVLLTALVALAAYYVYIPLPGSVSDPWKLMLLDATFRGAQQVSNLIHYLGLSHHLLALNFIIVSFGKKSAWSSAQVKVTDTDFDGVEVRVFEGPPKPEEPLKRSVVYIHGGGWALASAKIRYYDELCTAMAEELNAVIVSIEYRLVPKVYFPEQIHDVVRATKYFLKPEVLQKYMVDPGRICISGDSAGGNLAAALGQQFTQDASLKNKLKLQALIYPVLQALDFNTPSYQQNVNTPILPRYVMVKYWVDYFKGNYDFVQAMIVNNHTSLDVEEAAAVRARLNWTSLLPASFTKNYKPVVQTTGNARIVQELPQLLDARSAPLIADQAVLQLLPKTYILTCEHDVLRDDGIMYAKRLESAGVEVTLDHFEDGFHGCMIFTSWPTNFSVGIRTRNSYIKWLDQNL
Protocol: Membranes having the specified compounds were incubated with purified NCEH1 protein and the membrane was developed with NCEH1 antibody. […] ECs were treated with papuamide and cell extracts were blotted with indicated antibodies.

[7] = tested on: myocardial infarction in mice; assay: Myocardial infarction (MI) mouse model, ligation of the left coronary artery; type: in vivo
Protocol: Ligation of the left coronary artery is a well-accepted mouse model of myocardial infarction (MI), associated with high mortality (>70% in lwk). […] Mice were treated with vehicle or 20 mg/kg JW480 (IP, n=6 males & 6 females) for five days and subjected to an MI.

[8] = tested on: laser-induced CNV in mice; assay: Laser-induced choroidal neovascularization (CNV) mouse model; type: in vivo; settings: 20 mg/kg for seven days
Protocol: The eye offers an opportune model to study vascular pathology. The laser-induced choroidal neovascularization (CNV)) mouse model is used to study pathologic exudative angiogenesis as a major contributor to age-related macular degeneration (AMD). To test the protective effects of NCEH1 blockade, CNV was induced in two groups of mice that are exposed to either vehicle or 20 mg/kg of JW480 for seven days (n=12 each). […] Cumulatively, these mice studies provide evidence for the therapeutic use of JW480 in pathological CV conditions.

[9] = tested on: MCT-induced PAH in rats; assay: Rat MCT (monocrotaline) model of PAH; type: in vivo
Protocol: Rat MCT model of PAH. SD rats were given one dose of MCT injection to induce pulmonary hypertension. […] Rats were anesthetized and RVSP recorded.
Rats were injected with MCT to develop PAH in a well-established 4 week rodent model of the disease.

[10] = tested on: SREBP1 pathway; assay: RNA sequencing and pathway analysis of propranolol-treated ECs; type: cell-based, human; settings: ECs treated with propranolol
Excerpt: SREBP1 is a key transcription factor that promotes lipid synthesis upon activation. Normally, SREBP1 protein is retained in the endoplasmic reticulum by high levels of cholesterol. When the cholesterol levels drop, SREBP1 protein gets translocated to the Golgi where it is cleaved, and the transcriptional activation portion of this protein gets translocated to the nucleus. Subsequently, SREBP1 activates a transcription program of genes involved in lipid synthesis. RNAseq data was generated to study mechanisms of propranolol-mediated PAEC mitophagy induction. […] ECs were treated with propranolol and the total RNA isolated from the cells were subjected to high through-put RNA sequencing.

[11] = target: T2, SREBP1-NCEH1 complex (Homo sapiens, UniProt Q6PIU2); assay: Immunoprecipitation of endogenous SREBP1-NCEH1 complex; type: cell-based; settings: ECs, vs vehicle
T2 construct: endogenous in cells; host or cells: cultured endothelial cells (ECs)
T2 sequence (Q6PIU2 1-408): T1 sequence (Q6PIU2 1-408)
Protocol: Immunoprecipitation Assay. In determining endogenous SREBP1-NCEH1 complex formation, cultured endothelial cells were treated with IP lysis buffer (Pierce Cat #87787). SREBP1 complex was captured using SREBP1 antibody from Santa Cruz Biotechnology (Cat #sc-365513) and resolved on a SDS PAGE. Complex formation with NCEH1 was detected by blotting with NCEH1 antibodies (Sigma Cat #HPA026888). To map the domain of SREBP1 that binds to NCEH1, HA tagged full-length SREBP1 or C-terminal regulatory domain alone were co-expressed along with Flag tagged NCEH1 in HEK293 cells. SREBP proteins were captured on HA antibodies (Cell Signaling) and blotted with Flag antibodies (Sigma).

[12] = tested on: HF-PH mice; assay: High-fat diet AKR/J HF-PH mouse model; type: in vivo; settings: 4 weeks, implanted mini osmotic pump, vs vehicle
Excerpt: FIG. 14: Using a mouse model fed a high-fat diet, AKR/J mice develop obesity, insulin resistance, heart failure with preserved ejection fraction, and pulmonary hypertension and are designated as “HF-PH mice”.
Using a mouse model fed a high-fat diet (Research Diets, New Brunswick, NJ) for 16-20 weeks, AKR/J mice (Jackson Laboratories, Bar Harbor, ME) develop obesity, insulin resistance, heart failure with preserved ejection fraction, and pulmonary hypertension. (Meng, et al., 2017; Arwood, et al., 2019).

[13] = donor (non-PAH control)-derived PAEC / normal control ECs

COCCc1ccc(OCC(O)CNC(C)C)cc1 (stereo not drawn) [metoprolol]
Tom20 levels (mitophagy) [1]: failed to promote mitophagy

OC(CNCC(O)C1CCc2cc(F)ccc2O1)C1CCc2cc(F)ccc2O1 (stereo not drawn) [nebivolol]
Tom20 levels (mitophagy) [1]: failed to promote mitophagy

papuamide
activation of non-canonical SREBP1 pathway ([2]; ECs, cell extracts blotted): activate a non-canonical SREBP1 pathway | nuclear translocation of SREBP1 [3]: promotes nuclear translocation of SREBP1

CCN(CC)CCO[C@H]1CC[C@@]2(C)C(=CC[C@@H]3[C@@H]2CC[C@]2(C)C(=O)CC[C@@H]32)C1.Cl [U18666A]
mitophagy by immunofluorescence (Tom20/Lamp1) [4]: induce mitophagy

CC(C)c1ccccc1OC(=O)NCCc1ccc2ccccc2c1 [JW480]
Tom20 levels (mitophagy) [1]: lower | Tom20 levels (mitophagy) ([1]; listed as NCEH1): reduced the levels of Tom20 | mitophagy by immunofluorescence (Tom20/Lamp1) [4]: Tom20 was mobilized to lysosome | mitophagy by TEM (bilipid membrane formation around mitochondria) [5]: promoted mitophagy | SCD (SREBP1 target) levels [2]: elevated | SREBP1 levels (non-cleaved; decrease indicates cleavage and activation) [2]: reduce SREBP1 levels | SCD (SREBP1 target) levels ([2]; listed as NCEH1): sufficient to activate SREBP1 target SCD | NCEH1 levels ([2]; ECs): higher | nuclear translocation of SREBP1 [3]: promoted nuclear translocation of SREBP1 | NCEH1-phosphatidylserine interaction [6]: disrupts NCEH1-phosphatidylserine interactions | intracellular lipid droplets (TEM) ([7]; JW480-treated mice): increased intracellular lipid droplets | survival after MI ([7]; mice, 20 mg/kg IP for five days before MI): significantly improved survival | pathologic CNV [8]: inhibited pathologic CNV | retinal vessel leakage [8]: significantly reduced retinal vessel leakage

CC(C)NCC(O)COc1cccc2ccccc12 (racemic) [propranolol]
Tom20 levels (mitophagy) [1]: decreased Tom20 levels; also recorded: robustly induced mitophagy; also recorded: TOM20 levels go down; also recorded: lower | mitophagy induction (TOM20 level) ([1]; PAH patient-derived PAEC): reduced TOM20 levels; also recorded: consistently decreased Tom20 levels in PAH patient cells much more robustly than in normal cells | mitophagy induction (TOM20 level) [1, 13]: reduced TOM20 across all cells | mitophagy by immunofluorescence (Tom20/Lamp1) [4]: induce mitophagy; also recorded: Tom20 was mobilized to lysosome | TOM20/Lamp1 co-staining ([4]; propranolol treated PAH patient-derived PAEC): reduced TOM20/Lamp1 co-staining | mitophagy by TEM (bilipid membrane formation around mitochondria) [5]: promotes bilipid membrane formation around mitochondria more frequently than vehicle treated cells; also recorded: promoted mitophagy | right ventricle systolic pressures (RVSP) ([9]; 10 mg/kg IP for the last 2 of 4 weeks): significantly reduced | MCT-induced arterial wall thickness ([9]; 10 mg/kg IP, lung sections H&E): negated MCT-induced arterial wall thickness | SREBP1 transcriptional targets and transcript levels (RNA-seq) [10]: activated transcriptional targets, as well as transcript levels of SREBP1 | SCD (SREBP1 target) levels [2]: increased; also recorded: elevated | SREBP1 levels (non-cleaved; decrease indicates cleavage and activation) [2]: SREBP1 levels go down; also recorded: reduce SREBP1 levels | NCEH1 levels ([2]; ECs): higher | effect on inhibitor effects of fatostatin ([2]; PAEC, propranolol with fatostatin, last lane of western blot): able to rescue inhibitor effects of fatostatin | nuclear translocation of SREBP1 [3]: promoted nuclear translocation of SREBP1 | full length SREBP1 immunoprecipitated ([11]; anti-SREBP1 antibody beads): less full length SREBP1 immunoprecipitated | NCEH1 complexed with full length SREBP1 ([11]; blotted with NCEH1 antibody): reduced NCEH1 complexed with full length SREBP1 | NCEH1-phosphatidylserine interaction [6]: disrupts NCEH1-phosphatidylserine interactions | right ventricular systolic pressure [12]: significantly decreased

N#CC(C#N)=NNc1cccc(Cl)c1 [CCCP, carbonyl cyanide m-chlorophenylhydrazone]
mitophagy induction (TOM20 level) ([1]; PAH patient-derived PAEC): not observed; also recorded: failed to promote mitophagy | mitophagy induction (TOM20 level) [1, 13]: induced mitophagy; also recorded: promotes mitophagy
